# Values of other authors, collected in patent US8563723B2, “Arylsulfonyl pyrazoline carboxamidine derivatives as 5-HT6 antagonists” (Abbott Healthcare Products, B.V., priority 2008, dated 2013).
# Settings: Rogers, 1999; cited from earlier work
compound,measurement,value
COc1ccc(NS(=O)(=O)c2sc3ccc(Cl)cc3c2C)cc1N1CCNCC1 [SB-271046],performance in the Morris water maze,improved performance
